According to US20240199624A1, “COMPOUNDS, COMPOSITIONS, AND METHODS” (CHDI Foundation, Inc., priority 2022, published 2024):

How the values were obtained:
human MutSbeta [1] = target: T1, human MutSbeta (Homo sapiens, UniProt P20585+P43246); assay: ADP Glo assay 2.1; format: biochemical; conditions: 10 μM ATP, 7 nM enzyme; buffer with 5 mM GSH, 0.2% Ovalbumin
T1 construct: Msh2(1-934), Gene ID NP_000242.1; Msh3(1-1137), Gene ID J04810.1
Experimental: (§1) ADP Glo assay 2.1: Enzyme human MutSbeta (Msh2(1-934), Gene ID NP_000242.1, Msh3(1-1137), Gene ID J04810.1) with 22 bp biotin-labeled DNA containing a GT-mismatch (purchased from Curia Global, TOP 5′-[…]-3′; BOT 3′-AGTAGCTAGGC - - - CGAAGTCTACC-5′-Biotin) was pre-incubated in assay buffer (25 mM HEPES pH=7.5, 150 mM KCl, 5 mM MgCl2, 5 mM GSH, 0.1% Pluronic F-127, 0.2% Ovalbumin) to allow formation of the enzyme-DNA complex. Plates with spotted compounds in serial dilutions in DMSO (80 nL) were filled with ATP (2 μL, 10 μM final concentration) followed by an incubation of 30 min at RT. Then, enzyme was added (2 μL, 7 nM final concentration) and the reaction was allowed to proceed for 60 min at 37° C. After the ATPase reaction, the commercially available “ADP-Glo Reagent” was added (incubate 40 min at RT) to deplete remaining ATP via the activity of […]. Subsequently, the commercially available “Kinase Detection Reagent” converted ADP to ATP via the activity of PEP and Pyruvate kinase. The ATP was then converted into light by Ultra-Glo Luciferase. The obtained luminescence was proportional to the ADP concentration generated during the initial ATPase reaction. The luminescence signal was measured with an Envision reader, raw data were analyzed towards controls (full reaction=0% inhibition; no reaction in absence of enzyme=100% inhibition) and IC50 curves were analyzed with the inhouse software Aplus.

human MutSα = target: T2, human MutSα (Homo sapiens, UniProt P43246+P52701); assay: ADP Glo assay with MutSα (2.1); format: biochemical; conditions: 15 nM MutSα/DNA, 30 μM ATP
T2 construct: Msh2(1-934), Gene ID NP_000242.1; Msh6(1-1360), Gene ID NP_001393725.1
T2 sequence (P43246 whole entry): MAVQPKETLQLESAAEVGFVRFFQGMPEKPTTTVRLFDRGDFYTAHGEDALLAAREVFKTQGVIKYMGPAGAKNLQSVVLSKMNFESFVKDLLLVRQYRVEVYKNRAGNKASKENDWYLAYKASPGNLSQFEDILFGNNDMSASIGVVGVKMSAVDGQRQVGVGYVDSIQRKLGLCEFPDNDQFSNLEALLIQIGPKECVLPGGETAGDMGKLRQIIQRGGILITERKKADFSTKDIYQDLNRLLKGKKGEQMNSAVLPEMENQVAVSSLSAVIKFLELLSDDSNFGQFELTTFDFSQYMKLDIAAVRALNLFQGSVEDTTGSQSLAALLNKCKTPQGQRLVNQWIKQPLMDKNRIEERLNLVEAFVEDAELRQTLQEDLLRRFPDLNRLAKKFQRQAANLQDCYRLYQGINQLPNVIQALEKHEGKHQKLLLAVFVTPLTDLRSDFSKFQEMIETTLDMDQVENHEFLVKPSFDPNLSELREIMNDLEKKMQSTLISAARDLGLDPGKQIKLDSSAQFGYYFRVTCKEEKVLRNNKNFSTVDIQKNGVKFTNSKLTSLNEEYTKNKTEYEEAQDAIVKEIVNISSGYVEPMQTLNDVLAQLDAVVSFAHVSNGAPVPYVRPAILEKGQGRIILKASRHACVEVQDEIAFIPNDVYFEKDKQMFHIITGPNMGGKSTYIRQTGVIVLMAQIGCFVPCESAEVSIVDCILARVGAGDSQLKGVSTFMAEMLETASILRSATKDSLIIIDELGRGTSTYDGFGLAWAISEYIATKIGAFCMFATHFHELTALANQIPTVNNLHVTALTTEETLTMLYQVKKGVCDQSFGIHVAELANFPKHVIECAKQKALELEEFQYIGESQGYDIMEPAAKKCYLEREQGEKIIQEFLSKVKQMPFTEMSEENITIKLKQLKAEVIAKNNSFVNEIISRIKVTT
T2 sequence (P52701 whole entry): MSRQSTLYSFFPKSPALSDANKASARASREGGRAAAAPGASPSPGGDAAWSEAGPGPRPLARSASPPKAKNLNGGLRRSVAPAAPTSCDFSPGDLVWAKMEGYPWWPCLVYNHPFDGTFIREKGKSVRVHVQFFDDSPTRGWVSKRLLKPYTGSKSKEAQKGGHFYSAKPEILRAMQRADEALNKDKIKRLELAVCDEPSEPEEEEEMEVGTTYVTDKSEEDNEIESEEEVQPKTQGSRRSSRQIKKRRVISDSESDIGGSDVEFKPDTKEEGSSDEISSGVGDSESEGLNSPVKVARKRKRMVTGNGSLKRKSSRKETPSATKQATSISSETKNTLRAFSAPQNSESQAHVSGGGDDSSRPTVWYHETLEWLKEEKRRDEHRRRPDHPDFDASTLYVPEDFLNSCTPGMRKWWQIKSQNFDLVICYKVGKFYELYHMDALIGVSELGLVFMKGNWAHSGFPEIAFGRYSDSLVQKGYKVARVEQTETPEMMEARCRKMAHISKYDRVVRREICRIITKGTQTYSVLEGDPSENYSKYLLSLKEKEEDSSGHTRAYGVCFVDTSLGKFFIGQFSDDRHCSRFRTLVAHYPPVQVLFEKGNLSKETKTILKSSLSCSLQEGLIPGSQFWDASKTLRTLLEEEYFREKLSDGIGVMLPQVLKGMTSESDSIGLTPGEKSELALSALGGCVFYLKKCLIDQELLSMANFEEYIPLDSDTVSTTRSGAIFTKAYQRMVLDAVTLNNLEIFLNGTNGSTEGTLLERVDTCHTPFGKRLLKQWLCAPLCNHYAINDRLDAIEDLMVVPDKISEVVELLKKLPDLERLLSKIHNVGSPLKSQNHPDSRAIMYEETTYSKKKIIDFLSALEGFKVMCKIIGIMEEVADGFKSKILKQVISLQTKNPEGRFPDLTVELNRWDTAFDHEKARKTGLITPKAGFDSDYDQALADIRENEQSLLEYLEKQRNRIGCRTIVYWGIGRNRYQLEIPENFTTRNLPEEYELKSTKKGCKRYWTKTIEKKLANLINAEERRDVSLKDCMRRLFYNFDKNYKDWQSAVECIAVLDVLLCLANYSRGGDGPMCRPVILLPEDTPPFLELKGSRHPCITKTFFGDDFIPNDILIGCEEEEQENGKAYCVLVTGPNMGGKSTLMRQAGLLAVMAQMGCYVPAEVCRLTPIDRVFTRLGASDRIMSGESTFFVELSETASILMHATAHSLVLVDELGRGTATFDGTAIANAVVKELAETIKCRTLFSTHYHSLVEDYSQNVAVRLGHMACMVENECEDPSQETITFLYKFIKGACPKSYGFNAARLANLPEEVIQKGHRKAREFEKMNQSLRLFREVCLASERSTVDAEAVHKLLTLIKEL
Experimental: as §1
ADP Glo assay with MutSα (2.1): The ADP Glo assay version 2.1 with the enzyme human MutSα (Msh2(1-934), Gene ID NP_000242.1, Msh6(1-1360), Gene ID NP_001393725.1) was based on the same principle and protocol steps as the MutSβ assay. A 22 bp biotin-labeled DNA containing a GT-mismatch (purchased from Curia Global, TOP 5′-[…]-3′; BOT 3′-AGTAGCTAGGC - - - CGAAGTCTACC-5′-Biotin) was used for binding to MutSα. For this assay, concentrations of enzyme and ATP were optimized to 15 nM MutSα/DNA and 30 μM ATP.

human MutSbeta [2] = target: T1, human MutSbeta; assay: P33 SPA; format: biochemical; conditions: ATP added to compounds first, then enzyme with DNA; 2 μM ATP, 7 nM enzyme, 60 min 37° C.
Experimental: (§2) P33 SPA: Enzyme human MutSbeta (Msh2(1-934), Gene ID NP_000242.1, Msh3(1-1137), Gene ID J04810.1) and 22 bp biotin-labeled DNA containing a GT-mismatch (purchased from Curia Global, TOP 5′-[…]-3′; BOT 3′-AGTAGCTAGGC - - - CGAAGTCTACC-5′-Biotin) were pre-incubated at equimolar concentration for 15 min at room temperature (“RT”) in assay buffer (25 mM HEPES pH=7.5, 150 mM KCl, 2 mM MgCl2, 2 mM GSH, 0.01% Tween-20). ATP (10 μL, 2× final concentration of γ-[^33P]-ATP (final 0.1 nM; Hartmann Analytic, FF-301) and cold ATP (final 2 μM)) was added to compounds (400 nL spotted as concentration response in 100% DMSO into wells of an OptiPlate) and pre-incubated for 30 min at RT. Then, enzyme with DNA was added (10 μL, 2× final concentration of 7 nM) and incubated for 60 min at 37° C. in a total volume of 20 μL per well. Decay of [^33P] with a half-life of 25.4 days was corrected by increasing the concentration of the labelled nucleotide with the appropriate factor; all steps with radioactive ATP were conducted behind appropriate shielding. Then, 20 μL of a 1:2 mix of ammonium molybdate (20 mg/mL Ammonium molybdate in 2.4 M HCl) and SPA beads (ProteinA SPA beads from Perkin Elmer Cat #RPNQ0019 at 7.5 mg/mL+1% azide) was added per well and incubated at RT for 2 min. Then, 40 μL of 7 M CsCl and 0.1 M citrate was added per well and incubated for 20 h at RT before measuring on the MicroBeta (top read mode, 1 min per well). For full plate processing, all reagents were transferred with a pipettor (Selma, CyBio) apart from the final reagent (CsCl+citrate) which was added with a dispenser (MultiFlo, BioTek). Data analysis during assay development was done with Prism GraphPad.

human MutSbeta [3] = target: T1, human MutSbeta; assay: ADP Glo assay 1.1; format: biochemical; conditions: SPA buffer, no Ovalbumin; enzyme added to compounds before ATP; read-out: ADP Gol 1.1 assay IC50
Experimental: as §1
ADP Glo assay 1.1: The ADP Glo 2.1 assay was adapted to enable assessment of a more direct interaction of the compound with the enzyme: (1) the SPA buffer was applied (25 mM HEPES pH=7.5, 150 mM KCl, 2 mM MgCl2, 2 mM GSH, 0.01% Tween-20) which contained no decoy Ovalbumin protein. (2) The order of reagent addition was changed, and enzyme was now added directly to the spotted compounds before addition of ATP.

human MutSbeta [4] = target: T1, human MutSbeta; assay: P33 SPA 1.1; format: biochemical; conditions: Table 5A; enzyme first added to compounds, then ATP
Experimental: as §2
P33 SPA 11: For the SPA 1.1 assay, the addition of reagents was reversed, i.e. enzyme was first added to the compounds and pre-incubated followed by ATP addition; thus, the assay was aligned with ADP Glo 1.1 reagent addition order. The assay was repeated under similar conditions, and the results are shown below in Table 5B. It is contemplated the solubility of the compounds and/or varying test occasions may account for variability of assay results.

[5] = P33 SPA counter assay (absence of enzyme); conditions: interference with detection system
Experimental: P33 SPA counter assay: This assay was used in the absence of enzyme to determine whether the test compound interferes with the detection system. Otherwise, the same protocol and assay buffer as in the main SPA assay were applied (25 mM HEPES pH=7.5, 150 mM KCl, 2 mM MgCl2, 2 mM GSH, 0.01% Tween-20) and instead of enzyme addition, assay buffer was added. Hydrolysis of substrate (γ-[^33P]-ATP, 0.1 nM; Hartmann Analytic, FF-301; and cold ATP, 10 μM) to a similar level as under enzymatic conditions was achieved by incubation at 50° C. for 4 days. Decay of [^33P] with a half-life of 25.4 days was corrected by increasing the concentration of the labelled nucleotide with the appropriate factor; all steps with radioactive ATP were conducted behind appropriate shielding. After addition of pre-treated ATP substrate (10 μL) to the compounds and addition of buffer (10 μL, instead of enzyme), 20 μL of a 1:2 mix of ammonium molybdate (20 mg/mL Ammonium molybdate in 2.4M HCl) and SPA beads (ProteinA SPA beads from Perkin Elmer Cat #RPNQ0019 at 7.5 mg/mL+1% azide) was added per well and incubated at RT for 2 min. Then, 40 μL of 7 M CsCl and 0.1 M citrate was added per well and incubated for 1 h at room temperature before measuring on the MicroBeta (top read mode, 1 min per well). For full plate processing, all reagents were transferred with a pipettor (Selma, CyBio) apart from the final reagent (CsCl+citrate) which was added with a dispenser (MultiFlo, BioTek). Data analysis during assay development was done with Prism GraphPad, and IC50 fitting for whole compound plates was done with the in-house software Aplus.

T1 sequence (P43246 whole entry): as the sequence (P43246 whole entry) above
T1 sequence (P20585 whole entry): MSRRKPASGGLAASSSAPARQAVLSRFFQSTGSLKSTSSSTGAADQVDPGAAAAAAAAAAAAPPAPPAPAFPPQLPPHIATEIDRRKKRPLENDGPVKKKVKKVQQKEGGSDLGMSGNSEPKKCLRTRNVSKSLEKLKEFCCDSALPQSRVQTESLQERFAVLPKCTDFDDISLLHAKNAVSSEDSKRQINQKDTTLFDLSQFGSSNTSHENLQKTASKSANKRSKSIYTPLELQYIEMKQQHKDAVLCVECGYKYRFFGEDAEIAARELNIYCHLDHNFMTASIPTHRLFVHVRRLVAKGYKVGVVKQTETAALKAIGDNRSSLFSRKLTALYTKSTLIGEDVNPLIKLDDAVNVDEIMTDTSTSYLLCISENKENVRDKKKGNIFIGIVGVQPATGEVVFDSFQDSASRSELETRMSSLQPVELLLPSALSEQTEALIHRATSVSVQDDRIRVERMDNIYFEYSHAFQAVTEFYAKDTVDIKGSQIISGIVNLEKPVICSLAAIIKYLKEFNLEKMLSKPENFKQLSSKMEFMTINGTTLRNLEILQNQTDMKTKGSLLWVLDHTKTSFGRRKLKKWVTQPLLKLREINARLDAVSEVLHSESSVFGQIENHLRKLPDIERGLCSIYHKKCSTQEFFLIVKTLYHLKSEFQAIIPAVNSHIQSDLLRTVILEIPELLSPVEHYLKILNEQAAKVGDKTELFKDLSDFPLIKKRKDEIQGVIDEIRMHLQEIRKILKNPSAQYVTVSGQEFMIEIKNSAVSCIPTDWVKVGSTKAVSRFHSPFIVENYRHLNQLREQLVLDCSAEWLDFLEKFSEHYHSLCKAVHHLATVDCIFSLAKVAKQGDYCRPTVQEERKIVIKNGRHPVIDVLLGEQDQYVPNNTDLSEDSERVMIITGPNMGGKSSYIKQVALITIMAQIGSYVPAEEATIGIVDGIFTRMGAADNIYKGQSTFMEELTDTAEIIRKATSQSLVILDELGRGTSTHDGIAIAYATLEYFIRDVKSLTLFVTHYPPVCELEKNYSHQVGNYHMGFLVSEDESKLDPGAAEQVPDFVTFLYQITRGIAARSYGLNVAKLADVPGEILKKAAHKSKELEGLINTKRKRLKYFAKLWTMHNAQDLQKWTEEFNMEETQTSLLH

SMILES	IC50 (human MutSbeta [1]) [µM]	IC50 (human MutSα) [µM]	IC50 (human MutSbeta [2]) [µM]	IC50 (human MutSbeta [3]) [µM]	IC50 (human MutSbeta [4]) [µM]	IC50 [5] [µM]
CCN1CCN(c2nc(Nc3ccc(F)c(C)c3)c3nccnc3n2)CC1 [Compound 3, 2-(4-ethylpiperazin-1-yl)-N-(4-fluoro-3-methyl-phenyl)pteridin-4-amine]	32.6	42.3	20.8	42.5	24.5	
CN1CCN(c2nc(NCc3ccccc3)c3nccnc3n2)CC1 [Compound 5, N-benzyl-2-(4-methylpiperazin-1-yl)pteridin-4-amine]	148	> 200	31	63.4	44.8	> 200
Cc1cccc(Nc2nc(N3CCN(C)CC3)nc3nccnc23)c1 [Compound 6, 2-(4-methylpiperazin-1-yl)-N-(m-tolyl)pteridin-4-amine]	47.1		26.2	82.1	41.5	> 200
CCN1CCN(c2nc(Nc3ccc(F)c(F)c3)c3nccnc3n2)CC1 [Compound 16, N-(3,4-difluorophenyl)-2-(4-ethylpiperazin-1-yl)pteridin-4-amine]	> 200	42.7	122	> 200	> 200	> 200
Cc1ccc(Nc2nc(N3CCN(C)CC3)nc3nccnc23)cc1Cl [Compound 20, N-(3-chloro-4-methyl-phenyl)-2-(4-methylpiperazin-1-yl)pteridin-4-amine]	140	26.9	12.9	109	43.4	> 200
